The record followed here is US20040204383A1, “Lysophosphatidic acid analogs and inhibition of neointima formation” (priority 2003, published 2004).

“Also recorded” adds a separate entry of the source.

The test system of one test is rat carotid arteries. As to the kind of experiment: Induction of neointima formation in rat carotid artery by topical application. It is filed as in vivo. From the text: Briefly, the right carotid artery of anesthetized adult male Sprague-Dawley rats (250-300 g) was surgically exposed. The caudal origin of the common carotid artery was ligated using a vessel clip, followed by exposure and ligation of the internal carotid artery above the bifurcation. The external carotid artery was exposed, and a polyethylene catheter was inserted such that it never reached the common carotid artery, thereby avoiding mechanical injury to the vessel. The clip occluding the common carotid artery was temporarily released, and the vessel was rinsed with a retrograde injection of 500 μl physiological saline to remove residual blood. The vessel was again clipped, and 100 μl of treatment solution was injected. After 60 min of incubation, the cannula was withdrawn, the external carotid artery was ligated, and blood flow was restored. Animals were allowed to recover and were killed 7-56 d later by intracardiac perfusion of 10% buffered formaldehyde (pH 7.4). The common carotid artery from the […] to the bifurcation was dissected, embedded in paraffin, and processed for histological analysis. Five μm-thick sections were cut and stained with hematoxylin and eosin or Masson's trichrome stain. Intima to media ratios were quantified using an image analysis system (Scion Image CMS-800).

The next test deals with T1, PPARγ (Homo sapiens, UniProt P37231).
T1 construct: expressed in transfected cells; host or cells: CV-1 cells, transient transfection with LipofectAMINE 2000
T1 sequence (P37231 1-505): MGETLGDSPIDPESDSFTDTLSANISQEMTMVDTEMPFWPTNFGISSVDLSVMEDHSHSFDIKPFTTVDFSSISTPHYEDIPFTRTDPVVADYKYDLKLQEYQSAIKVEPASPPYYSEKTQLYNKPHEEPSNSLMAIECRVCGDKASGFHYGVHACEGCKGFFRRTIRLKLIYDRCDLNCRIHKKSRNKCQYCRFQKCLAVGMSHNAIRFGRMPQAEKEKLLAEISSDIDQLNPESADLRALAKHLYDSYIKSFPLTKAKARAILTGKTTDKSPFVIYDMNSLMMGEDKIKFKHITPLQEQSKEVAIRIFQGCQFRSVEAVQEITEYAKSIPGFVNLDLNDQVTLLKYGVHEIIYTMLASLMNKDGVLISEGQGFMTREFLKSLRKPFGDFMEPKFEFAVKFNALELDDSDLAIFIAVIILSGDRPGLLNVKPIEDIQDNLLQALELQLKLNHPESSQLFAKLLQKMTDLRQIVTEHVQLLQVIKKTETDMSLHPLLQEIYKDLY
T1 sequence (P19793 1-462 partner): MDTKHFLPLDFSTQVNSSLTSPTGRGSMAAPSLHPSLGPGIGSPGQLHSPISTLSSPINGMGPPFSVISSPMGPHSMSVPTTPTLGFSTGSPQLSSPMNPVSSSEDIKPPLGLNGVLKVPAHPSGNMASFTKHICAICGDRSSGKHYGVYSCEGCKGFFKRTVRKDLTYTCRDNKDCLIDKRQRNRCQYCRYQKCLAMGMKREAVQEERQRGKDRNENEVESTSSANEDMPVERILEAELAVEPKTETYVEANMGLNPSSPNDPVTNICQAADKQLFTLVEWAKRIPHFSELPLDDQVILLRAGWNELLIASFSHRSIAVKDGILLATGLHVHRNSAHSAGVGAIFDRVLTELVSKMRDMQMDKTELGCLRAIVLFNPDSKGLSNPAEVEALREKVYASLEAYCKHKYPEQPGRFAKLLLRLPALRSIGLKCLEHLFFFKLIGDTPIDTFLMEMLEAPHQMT
As to the kind of experiment: PPRE-Acox-Rluc reporter gene assay in CV-1 cells transfected with PPARγ. Format: cell-based. The note with it: for activation of the PPRE-Acox-Rluc reporter: 10 μM, 20 h, CV-1 cells (FIG. 6C). On the procedure:
CV-1 cells were plated in 96-well plates (5×10^3 cells per well) in DME supplemented with 10% FBS. […] Twenty four hours after transfection, cells were treated with 1% FBS-supplemented OptiMEMI™ (Invitrogen) containing DMSO or test compound (10 μM) in DMSO for 20 h. Luciferase and β-galactosidase activities were measured with the Steady-Glo® Luciferase Assay System (Promega) and the Galacto-Light Plus™ System (Applied Biosystems), respectively. Samples were run in quadruplicate, and the mean±SE were calculated. Data are representative of at least three independent transfections. Student's t test was used for null hypothesis testing, and P<0.05 was considered significant.

Test [1] deals with CD36(−273)-Rluc reporter gene. The experiment in a line: CD36(−273)-Rluc reporter gene (with PPRE) in CV-1 cells. The settings on record: 10 μM, CV-1 cells (FIG. 7E). Format: cell-based. The method, then: Therefore, the investigators compared the unique in vivo neointima-eliciting lysophosphatidic acid structure-activity relationship with that of PPARγ using an in vitro assay that utilizes an acyl-coenzyme A oxidase-luciferase (PPRE-Acox-Rluc) reporter gene construct containing a peroxisome proliferator-activated receptor response element. CV-1 cells were plated in 96-well plates (5×10^3 cells per well) in DME supplemented with 10% FBS. The next day, the cells were transiently transfected with 125 ng of pGL3-PPRE-acyl-CoA oxidase (Acox)-renilla luciferase), or 125 ng pGL3-CD36(−273), or pGL3-CD36(−261), 62.5 ng of pcDNAI-PPARγ, and 12.5 ng of pSV-β-galactosidase (Promega) using LipofectAMINE™ 2000 (Invitrogen). Twenty four hours after transfection, cells were treated with 1% FBS-supplemented OptiMEMI™ (Invitrogen) containing DMSO or test compound (10 μM) in DMSO for 20 h. Luciferase and β-galactosidase activities were measured with the Steady-Glo® Luciferase Assay System (Promega) and the Galacto-Light Plus™ System (Applied Biosystems), respectively. Samples were run in quadruplicate, and the mean±SE were calculated. Data are representative of at least three independent transfections. Student's t test was used for null hypothesis testing, and P<0.05 was considered significant.
Background: In a reporter assay the amount or activity of a reporter protein is the signal.

The subject of test [2] is vascular smooth muscle cells. As to the kind of experiment: Phenotypic modulation and dedifferentiation of cultured VSMCs (morphology, hCAD mRNA). Format: cell-based, rat. The method, then:
Expression of lysophosphatidic acid-specific G protein-coupled plasma membrane receptors in rat carotid arteries was examined by RT-PCR as described earlier by Wang et al. (2002). To quantify heavy caldesmon mRNA, quantitative PCR was performed applying the real-time SYBR Green PCR method using a Sequence Detection System Model 7700 (Applied Biosystems) instrument. Rat heavy caldesmon and GAPDH (reference control mRNA)-specific primers were designed with Primer Express Software (Applied Biosystems), and forward and reverse primers were as follows: 5′-[…]-3′ (SEQ ID NO:1) and 5′-[…]-3′ (SEQ ID NO:2) for heavy caldesmon; 5′-[…]-3′ (SEQ ID NO:3) and 5′-[…]-3′ (SEQ ID NO:4) for GAPDH. Amplification reaction was performed with SYBR Green PCR Master Mix (Applied Biosystems) following the manufacturer's protocol. mRNA abundance calculation was based on Ct values as described previously (Wang et al., 2002). The expression level of heavy caldesmon mRNA was normalized to GAPDH mRNA. Each PCR reaction was performed at least three times, and the result was expressed as mean±SEM. Statistical comparison of mRNA expression was evaluated by ANOVA, and P<0.05 was considered statistically significant.
It has been reported that unsaturated lysophosphatidic acid species induced phenotypic modulation of cultured vascular smooth muscle cells (VSMCs). Because the neointimal response and PPARγ display a similar selectivity for unsaturated lysophosphatidic acid, that activation of PPARγ plays a role in the phenotypic dedifferentiation is hypothesized herein. This hypothesis was tested in a culture system in which IGF-1 maintains the differentiated spindle shape of vascular smooth muscle cells as indicated by high levels of heavy caldesmon (hCAD) mRNA expression.

Where [3] appears, read: 10 μM, rat carotid artery model (FIG. 3C).
[4] abbreviates: 10 ng/ml, 2-wk period (FIG. 5B).

Regarding 2,3-cyclic phosphatidic acid [cPA 18:1], the neointima formation result in the test with rat carotid arteries (setting [3]) was “did not elicit detectable neointima”; with rat carotid arteries (10 μM, rat carotid artery model (FIG. 3C), listed as cPA) it was “inactive”. For the same molecule, on PPARγ, the “activation of the PPRE-Acox-Rluc reporter” value was “inactive”.

For the molecule 3-O-octadecenyl-glycerophosphate [3AGP], in the test on rat carotid arteries (setting [3]), the neointima formation result is “modestly effective”.

`CCCCCCCCC=CCCCCCCCCOCC(O)COP(=O)(O)O` (centres unmarked) [1AGP, 1-octadecenyl-glycerophosphate]: in the test with rat carotid arteries (setting [3]), the neointima formation result is reported as “highly effective”. The “stimulation of CD36(−273)-Rluc reporter gene” value in test [1] is on record as “higher stimulation”.

As for `CCCCCCCCCCCCCCCCOCC(COP(=O)([O-])OCC[N+](C)(C)C)OC(=O)CCCCCCCC(=O)O` (centres unmarked) [AZ-PC, 1-O-hexadecyl-2-azaleoyl-phosphatidylcholine], the neointima formation result with rat carotid arteries (after 2 weeks (FIG. 6B)) is “caused neointima formation”.

With `O=C(Nc1ccccc1)c1cc([N+](=O)[O-])ccc1Cl` [GW9662], the “inhibition of neointima formation elicited by lysophosphatidic acid 20:4” value with rat carotid arteries (5 μM 30 min before and coapplied with 2.5 μM LPA 20:4) was “completely abolished neointima formation; also recorded: inhibited”. In addition, in the test with rat carotid arteries (FIG. 6B), the “effect on vessels from animals treated with SOV-PC and saturated lysophosphatidic acid species” value is “had no effect”; the “inhibition of AZ-PC-induced neointima formation” value is recorded as “inhibited by GW9662”. In addition, in the test with rat carotid arteries (GW9662 pretreatment (FIG. 6B)), the “inhibition of neointima formation in response to LPA 18:2” value is reported as “inhibited” and the “inhibition of neointima formation in response to minimally oxidized LDL” value is reported as “inhibited”. In addition, the “inhibition of Rosi-induced lesion formation” value in the test with rat carotid arteries (GW9662 pretreatment and coapplication (FIG. 6B)) is reported as “fully blocked”. In addition, the “effect on LPA 20:4- and Rosi-induced flattened morphology of VSMCs” value in test [2] (200 nM GW9662) is “reversed this effect”. Besides, the “effect on hCAD mRNA expression” value in test [2] (200 nM pretreatment, quantitative RT-PCR (FIG. 8I)) was “caused a significant increase in hCAD mRNA expression”. The “effect on morphology of IGF-1- and LPA 20:0-treated VSMC cultures” value in test [2] (200 nM, 30 min pretreatment) is “did not affect the spindle-like morphology”. Moreover, the “inhibition of lysophosphatidic acid 20:4-induced PPRE-Acox-Rluc reporter gene expression” value on PPARγ (10 μM (FIG. 6D)) was “abolished”.

`CCCCCCCCCCCCCCCCCC(=O)OCC(O)COP(=O)(O)O` (centres unmarked) [LPA 18:0]: the neointima formation result in the test with rat carotid arteries (setting [3]) is given as “did not elicit detectable neointima”.

For the molecule `CCCCCCCCCCCCC/C=C/[C@@H](O)[C@@H](N)COP(=O)(O)O` [S1P, sphingosine 1-phosphate], at PPARγ, the “activation of the PPRE-Acox-Rluc reporter” value is “inactive”.

With `CCCCCCCCCCCCCCCCCC(=O)OC[C@H](COP(=O)([O-])OCC[N+](C)(C)C)OC(=O)CCCC=O` [SOV-PC, stearoyl-oxovaleryl phosphatidylcholine], the neointima formation entry in the test on rat carotid arteries (after 2 weeks (FIG. 6B)) is on record as “failed to stimulate neointima formation”.

In the case of `CCCCCCCCCCCCCCCC(=O)O[C@H](COP(=O)(O)O)C(F)F` [XY4, 1,1-difluorodeoxy-(2R)-palmitoyl-sn-glycero-3-phosphate], the neointima formation entry with rat carotid arteries (10 μM, 2-wk period (FIG. 5B)) is “showed neointima formation”.

As to `CCCCCCCCCCCCCCCC(=O)OC[C@@H](F)COP(=O)(O)O` [XY8, 1-palmitoyl-(2R)-fluorodeoxy-sn-glycero-3-phosphate], the neointima formation result in the test with rat carotid arteries (10 μM, 2-wk period (FIG. 5B)) is on record as “showed neointima formation”.

On to `CCCCCCCCCCCCCCCCOC[C@@H](O)COP(=O)(O)O` [hexadecyl-GP], for which, on PPARγ, the “activation of the PPRE-Acox-Rluc reporter” value is given as “activated the reporter gene”.

For the molecule `CCCCCCCCCCCCCCCCCCOC[C@@H](O)COP(=O)(O)O` [octadecyl-GP], the “activation of the PPRE-Acox-Rluc reporter” value at PPARγ is “activated the reporter gene”.

Take “EGF: epidermal growth factor (NSDSECPLSHDGYCLHDGVCMYIEALDKYACNCVVGYIGERCQYRDLKWWELR; UniProt P01133 971-1023, looked up)”: the neointima formation entry is “failed to induce detectable neointima” in the test on rat carotid arteries (50 ng/ml, 2-wk period (FIG. 5B)) and “ineffective in inducing neointima formation” in the test with rat carotid arteries (100 ng/ml (summary)).

For the molecule LPA 18:1, in the test with rat carotid arteries (10 μM, 2-wk period (FIG. 5B)), the neointima formation result is “showed neointima formation”. Also, the “extent of neointima development, concentration dependence” value with rat carotid arteries (2 wk after treatment (FIG. 4B)) is on record as “concentration dependent up to 10 μM”. Besides, in the test with rat carotid arteries (P<0.01, FIG. 4B), the “concentration at which neointima development reached statistical significance” value came out at 5 µM.

With PDGF, the neointima formation entry with rat carotid arteries (setting [4]) is “ineffective in inducing neointima formation; also recorded: failed to induce detectable neointima”.

In the case of VEGF, the neointima formation result with rat carotid arteries (setting [4]) is recorded as “ineffective in inducing neointima formation; also recorded: failed to induce detectable neointima”.

As for dioctylglycerol pyrophosphate [DGPP], the “inhibition of lysophosphatidic acid 20:4-induced neointima formation” value with rat carotid arteries (FIG. 6A) is listed as “modest inhibition”.

For lysophosphatidic acid, the “effect of added albumin on compound-induced activation of the PPRE-Acox-Rluc reporter gene” value at PPARγ (albumin 0.04-4% wt/vol, concentration-dependent (FIG. 7G)) is on record as “inhibited”. Further, on PPARγ (dose-response (FIGS. 6E and F)), the “concentrations sufficient to cause significant activation of the reporter” value is given as “high nanomolar concentrations”. For the same molecule, the “effect of added rat serum on compound-induced activation of the PPRE-Acox-Rluc reporter gene” value at PPARγ (rat serum 1-20% vol/vol, concentration-dependent (FIG. 7H)) is “inhibited”.
